The data set can be described thus: Solubility of docetaxel in various solvents. The class given is physicochemical. Particulars: for solubility: read-out: Solubility of Docetaxel, Concentration. On the procedure:
In consideration of the severe side effects associated with the use of polysorbates, such as TWEEN 80®, as solubilizers of docetaxel, solubility studies were conducted to determine non-toxic solvents that can effectively dissolve docetaxel.
Solubility of docetaxel was assessed using several different solvents that are well-tolerated in subjects, as well as polysorbates for comparison.

One compound from patent US7772274B1, “Docetaxel formulations with lipoic acid” (Scidose, LLC, priority 2009, dated 2010) can be followed below.

Like-named read-outs stand apart in the source and are kept apart here.

In the case of `CC(=O)O[C@@]12CO[C@@H]1C[C@H](O)[C@@]1(C)C(=O)[C@H](O)C3=C(C)[C@@H](OC(=O)[C@H](O)[C@@H](NC(=O)OC(C)(C)C)c4ccccc4)C[C@@](O)([C@@H](OC(=O)c4ccccc4)[C@H]21)C3(C)C` [Docetaxel, (2R,3S)—N-carboxy-3-phenylisoserine, N-tert-butyl ester, 13-ester with 5β-20-epoxy-1,2α,4,7β,10β,13α-hexahydroxytax-11-en-9-one 4-acetate 2-benzoate, trihydrate], the solubility worked out at 35 mg/mL (oil or lipid, solvent LABROFAC™ (Capric triglyceride PEG 4 ester Macrogol 200)); 10 mg/mL (oil or lipid, solvent MAISINE™ 35-1 (Glycerol mono linoleate)); 7 mg/mL (oil or lipid, solvent PECEOL® (Glycerol mono Oleate 40)); 6 mg/mL (organic solvent or mixture, solvent 1-lactic acid); 15 mg/mL (organic solvent or mixture, solvent 2% Lutrol in PEG 400); 15 mg/mL (organic solvent or mixture, solvent 50% PEG 400/50% PG). Further, the solubility was found to be 60 mg/mL (organic solvent or mixture, solvent Acetic acid); 90 mg/mL (organic solvent or mixture, solvent Benzyl alcohol); 13 mg/mL (organic solvent or mixture, solvent Benzyl benzoate); 120 mg/mL (organic solvent or mixture, solvent Ethanol); 1.65 mg/mL (organic solvent or mixture, solvent Glycerol); 200 mg/mL (organic solvent or mixture, solvent Glycofurol). Also, the solubility is, setting by setting: (organic solvent or mixture, solvent N-Methyl 2-Pyrrolidone) 17.6 mg/mL; (organic solvent or mixture, solvent PEG 400) 10 mg/mL; (organic solvent or mixture, solvent Propylene Glycol) 10 mg/mL; (organic solvent or mixture, solvent Span 80) 3.5 mg/mL; (organic solvent or mixture, solvent TPGS 1000) 50 mg/mL; (organic solvent or mixture, solvent TWEEN 20®) 90 mg/mL. Moreover, under “organic solvent or mixture, solvent TWEEN 80®”, the solubility came to 60 mg/mL. For the same compound, the “Solubility of Docetaxel, Concentration” value (solvent Glycofurol) is recorded as “most soluble”.
